Reference: publication PMC12867150, “A fungi-derived cyclic peptide enhances Th9-mediated antitumor immunity by targeting ZAP70 and SREBP1” (The Journal of Clinical Investigation, 2025)

Tests used:
IL-6 = test: Serum IL-6 by ELISA after ACT (S1B); type: in vivo, mouse; conditions: for IL-6 of blood from mouse: Supplemental Figure 1B
Experimental: Peripheral blood was collected from mouse tail veins at predefined time points in the tumor model. Samples were allowed to clot at 4°C for 1 hour and were then centrifuged at 600g for 25 minutes to obtain serum. Serum IL-6 levels were measured using an ELISA kit (Invitrogen; catalog 88-7064) according to the manufacturer’s instructions.
Days after ACT Days after ACT
Figure S1. EpA enhances immune responses. […]
Serum IL-6 levels after ACT, measured by ELISA on days 5, 10, 15, and 20. (C–E) […]
Statistical analysis was performed using two-way ANOVA with Tukey’s post hoc test (A), one-way ANOVA with Tukey’s post hoc test (B) or two-tailed unpaired Student’s t-test (D and G–M). ns, not significant. *p < 0.05, **p < 0.01, ****p < 0.0001.
(also on this page, place not known: Mouse weight (g) CtrlEpA CtrlEpA CtrlEpA0 I CD45.1+ T cells (%) CtrlEpA CD4+ T cells (%) CtrlEpA CtrlEpA CtrlEpA FSC CD8 CD8 FSC FSC FSC BNumber of CD45.1+ T cells (×103 per mgĎ Number of CD4+ T cells (×104 per mgĎ DC (%)NK cells (%) NK cells (%) DC (%) Number of DC (×103 per mg) Number of NK cells (×105) Number of NK cells (×103 per mg) Number of DC (×105) FSC FSC FSC CD8 CtrlEpA CtrlEpA CtrlEpA CD8+ T cells (%) Number of CD8+ T cells (×104 per mgĎ nsns ns nsns ns 40 IL-6 (pg/ml))

Raji-luciferase tumor = test: Raji-luciferase xenograft, bioluminescence tumor radiance (Figure 8J-K); type: in vivo, NSG mice; conditions: EpA-treated human Th9 CAR T cells 2 × 10^6 i.v.; n = 5; result in words
From the text: Representative plots (A) and quantification (B) (n = 4). (C) Quantitative PCR analysis of IL9, IRF4, and SPI1 mRNA expression in human Th9 cells (n = 3). (D) Flow-cytometric analysis of mitochondrial membrane potential in human Th9 cells (n = 3). (E) Luciferase-based assay analysis of intracellular ATP levels in human Th9 cells (n = 5). (F) Flow-cytometric analysis of phosphorylated ZAP70 in human Th9 cells (n = 3). (G) Flow-cytometric analysis of TNF-α expression in human Th9 cells (n = 4). (H) Cytotoxicity assay of EpA-treated or control CD19 CAR Th9 cells against Raji lymphoma target cells at indicated effector-to-target (E/T) ratios (n = 3). (I) Schematic diagram of the in vivo Raji-luciferase xenograft model in NSG mice receiving control or EpA-treated human Th9 CAR T cells. (J and K) Representative bioluminescence imaging (J) and quantification of tumor radiance (K) in NSG mice at indicated time points after adoptive transfer. […] Statistical significance was determined using 2-tailed unpaired Student’s t test (B–H), 2-way ANOVA followed by Šidák’s post hoc test (K), and log-rank test (L). […]
For xenograft models, M-NSG mice were intravenously inoculated with 1 × 10^6 Raji-CD19 tumor cells. […] Tumor progression and immune cell infiltration were subsequently monitored according to experimental endpoints.

SREBP1 = test: CETSA of SREBP1 (Figure 6D-E); type: binding; conditions: result in words
Experimental: Jurkat or 293T cells were washed twice with PBS and resuspended in PBS containing protease and phosphatase inhibitors. Cells were lysed by 3 cycles of liquid nitrogen snap-freezing and thawing at room temperature. […] One aliquot from each group was maintained at room temperature, and the others were heated for 3 minutes at 3 °C increments from 43°C to 64°C. Samples were then analyzed by SDS-PAGE and immunoblotting to assess protein thermal stability and compound binding.

anteiso-C15 Leu7 surfactin [EpA]
IL-6 of blood from mouse (IL-6; Day5, replicate 1): 26.4444 pg/mL | IL-6 of blood from mouse (IL-6; Day5, replicate 2): 18 pg/mL | IL-6 of blood from mouse (IL-6; Day5, replicate 3): 22.6667 pg/mL | IL-6 of blood from mouse (IL-6; Day5, replicate 4): 28 pg/mL | IL-6 of blood from mouse (IL-6; Day10, replicate 1): 22.6667 pg/mL | IL-6 of blood from mouse (IL-6; Day10, replicate 2): 21.3333 pg/mL | IL-6 of blood from mouse (IL-6; Day10, replicate 3): 24.2222 pg/mL | IL-6 of blood from mouse (IL-6; Day10, replicate 4): 22 pg/mL | IL-6 of blood from mouse (IL-6; Day15, replicate 1): 19.5556 pg/mL | IL-6 of blood from mouse (IL-6; Day15, replicate 2): 16 pg/mL | IL-6 of blood from mouse (IL-6; Day15, replicate 3): 11.3333 pg/mL | IL-6 of blood from mouse (IL-6; Day15, replicate 4): 20 pg/mL | IL-6 of blood from mouse (IL-6; Day20, replicate 1): 21.7778 pg/mL | IL-6 of blood from mouse (IL-6; Day20, replicate 2): 14.8889 pg/mL | IL-6 of blood from mouse (IL-6; Day20, replicate 3): 14.4445 pg/mL | IL-6 of blood from mouse (IL-6; Day20, replicate 4): 26.8889 pg/mL | serum IL-6 levels (IL-6; EpA-Th9 therapy vs control, result in words): No significant differences | tumor burden (Raji-luciferase tumor): markedly reduced tumor burden | thermal stability of SREBP1 (SREBP1): enhanced thermal stability of SREBP1
